According to patent EP0637588A1, “ACTIVE OXYGEN INHIBITOR COMPOSITION” (SHISEIDO COMPANY LIMITED, priority 1993, dated 1994):

System: polymorphonuclear leukocyte (PMNs)
Test: Suppressing action on production of active oxygen from neutrophils (OPZ-stimulated, FCLA dependent chemiluminescence)
Assay type: cell-based, white Japanese rabbit
Conditions: Oryctolagus cuniculus, PMNs stimulated by opsonized zymosan (OPZ), 37°C, read-out: Suppressing Action on Production of Active Oxygen (Suppressive Rate %)
Protocol: A 400 mL amount of physiological saline solution containing 0.2% glycogen was administered by drip into the abdominal cavity of a white Japanese rabbit having about 3 kg body weight without anesthesia. After 16 hours, 400 ml of sterilized physiological saline solution was administered, the cavity was massaged well, then the ascites was sampled. This was centrifuged at 100 × g to obtain a precipitate which was then suspended in a Hanks Balanced Salt Solution (HBSS) and adjusted to 5 x 10⁵ cells/mL. This was used as the polymorphonuclear leukocyte (PMNs) fraction. The action on the production of active oxygen by opsonized zymosan (OPZ) was studied as follows: To PMNs (480 µl) were added 3,7-dihydro-6-[4-[2-(N'-(5-fluoresceinyl)thioureid)ethoxy]phenyl]-2-methylimidazo[1,2-a]pyradine-3-on·sodium salt (FCLA) (2 µM) and various concentrations of test compounds. The resulting mixture was incubated at 37°C for 10 minutes, OPZ was added in an amount of 5 µL, and then the FCLA dependent chemiluminescence was measured using a photon counter (made by BertHold of Germany) under a constant temperature of 37°C along with the elapse of time.

O=C1O[C@H]([C@@H](O)CO)C(O)=C1O [Ascorbic acid]
inhibition at 0.1 µM (Concentration 0.1 µM): 20.1%
inhibition at 1 µM (Concentration 1.0 µM): 51.7%
inhibition at 10 µM (Concentration 10 µM): 86.8%
